Reference: US9073855B2, “BCL-2 selective apoptosis-inducing agents for the treatment of cancer and immune diseases” (AbbVie Inc., priority 2008, dated 2015)

Columns and labels:
GST-Bcl-XL = GST-Bcl-XL (Homo sapiens, UniProt Q07817); experiment: TR-FRET binding assay, GST-Bcl-XL with F-Bak peptide probe; conditions: TR-FRET Binding Affinity, GST-Bcl-XL, F-Bak peptide probe
Outline: (§1)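 Compounds were serially diluted in DMSO from a 50 μM starting solution (2× the starting concentration; 10% DMSO). Plates were incubated for 3 h at room temperature, and TR-FRET was read with 340/35 nm excitation and emission at 520/525 nm (F-Bak) and 495/510 nm (Tb antibody). Ki values were calculated using Wang's competitive-binding equation.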

GST-Bcl-2 = GST-Bcl-2 (Homo sapiens, UniProt P10415); experiment: TR-FRET binding assay, GST-Bcl-2 with F-Bak peptide probe; conditions: TR-FRET Binding Affinity, GST-Bcl-2, F-Bak peptide probe
Outline: as §1

Sequence of GST-Bcl-XL (Q07817 whole entry): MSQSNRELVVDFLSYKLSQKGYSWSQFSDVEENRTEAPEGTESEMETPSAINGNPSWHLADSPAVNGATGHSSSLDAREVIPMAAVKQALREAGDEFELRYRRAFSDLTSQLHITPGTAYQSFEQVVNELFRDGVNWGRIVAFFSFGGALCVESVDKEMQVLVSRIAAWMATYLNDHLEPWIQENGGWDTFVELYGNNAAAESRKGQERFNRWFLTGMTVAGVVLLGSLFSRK
Sequence of GST-Bcl-2 (P10415 whole entry): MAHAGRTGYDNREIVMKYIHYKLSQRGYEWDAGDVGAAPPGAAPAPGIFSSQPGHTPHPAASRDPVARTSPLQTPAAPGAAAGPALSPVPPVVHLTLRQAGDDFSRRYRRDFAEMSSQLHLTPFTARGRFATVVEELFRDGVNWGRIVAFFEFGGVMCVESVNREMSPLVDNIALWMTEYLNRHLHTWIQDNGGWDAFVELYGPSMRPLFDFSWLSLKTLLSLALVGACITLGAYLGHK

O=C(NS(=O)(=O)c1ccc(NC2CCN(S(=O)(=O)c3ccccc3)CC2)c([N+](=O)[O-])c1)c1ccc(N2CCN(Cc3ccccc3-c3ccc(Cl)cc3)CC2)cc1Oc1ccccc1 [Example 157, 4-{4-[(4′-chloro-1,1′-biphenyl-2-yl)methyl]piperazin-1-yl}-N-[(3-nitro-4-{[1-(phenylsulfonyl)piperidin-4-yl]amino}phenyl)sulfonyl]-2-phenoxybenzamide]
Ki (GST-Bcl-XL): > 660 nM
Ki (GST-Bcl-2): 4.45 nM

O=C(NS(=O)(=O)c1ccc(NC2CCN(S(=O)(=O)c3cccc4cccnc34)CC2)c([N+](=O)[O-])c1)c1ccc(N2CCN(Cc3ccccc3-c3ccc(Cl)cc3)CC2)cc1Oc1ccccc1 [Example 158, 4-{4-[(4′-chloro-1,1′-biphenyl-2-yl)methyl]piperazin-1-yl}-N-[(3-nitro-4-{[1-(quinolin-8-ylsulfonyl)piperidin-4-yl]amino}phenyl)sulfonyl]-2-phenoxybenzamide]
Ki (GST-Bcl-XL): > 660 nM
Ki (GST-Bcl-2): 64.8 nM

CN(C)CC[C@H](Nc1ccc(S(=O)(=O)NC(=O)c2ccc(N3CCN(Cc4ccccc4-c4ccc(Cl)cc4)CC3)cc2Oc2ccccc2)cc1[N+](=O)[O-])c1cccs1 [Example 161, 4-{4-[(4′-chloro-1,1′-biphenyl-2-yl)methyl]piperazin-1-yl}-N-[(4-{[(1S)-3-(dimethylamino)-1-thien-2-ylpropyl]amino}-3-nitrophenyl)sulfonyl]-2-phenoxybenzamide]
Ki (GST-Bcl-XL): > 660 nM
Ki (GST-Bcl-2): 1.71 nM

O=C(NS(=O)(=O)c1ccc(NCc2cccs2)c([N+](=O)[O-])c1)c1ccc(N2CCN(Cc3ccccc3-c3ccc(Cl)cc3)CC2)cc1Oc1ccccc1 [Example 162, 4-{4-[(4′-chloro-1,1′-biphenyl-2-yl)methyl]piperazin-1-yl}-N-({3-nitro-4-[(thien-2-ylmethyl)amino]phenyl}sulfonyl)-2-phenoxybenzamide]
Ki (GST-Bcl-XL): 167 nM
Ki (GST-Bcl-2): 1.35 nM

O=C(NS(=O)(=O)c1ccc(NCC2CCOCC2)c(S(=O)(=O)C(F)(F)F)c1)c1ccc(N2CCN(Cc3ccccc3-c3ccc(Cl)cc3)CC2)cc1Oc1ccccc1 [Example 163, 4-{4-[(4′-chloro-1,1′-biphenyl-2-yl)methyl]piperazin-1-yl}-2-phenoxy-N-({4-[(tetrahydro-2H-pyran-4-ylmethyl)amino]-3-[(trifluoromethyl)sulfonyl]phenyl}sulfonyl)benzamide]
Ki (GST-Bcl-XL): > 660 nM
Ki (GST-Bcl-2): 5.62 nM

O=C(NS(=O)(=O)c1ccc(NCCn2ccnn2)c([N+](=O)[O-])c1)c1ccc(N2CCN(Cc3ccccc3-c3ccc(Cl)cc3)CC2)cc1Oc1ccccc1 [Example 164, 4-{4-[(4′-chloro-1,1′-biphenyl-2-yl)methyl]piperazin-1-yl}-N-[(3-nitro-4-{[2-(1H-1,2,3-triazol-1-yl)ethyl]amino}phenyl)sulfonyl]-2-phenoxybenzamide]
Ki (GST-Bcl-XL): 138 nM
Ki (GST-Bcl-2): 0.963 nM

O=C(NS(=O)(=O)c1ccc(NCCn2nccn2)c([N+](=O)[O-])c1)c1ccc(N2CCN(Cc3ccccc3-c3ccc(Cl)cc3)CC2)cc1Oc1ccccc1 [Example 165, 4-{4-[(4′-chloro-1,1′-biphenyl-2-yl)methyl]piperazin-1-yl}-N-[(3-nitro-4-{[2-(2H-1,2,3-triazol-2-yl)ethyl]amino}phenyl)sulfonyl]-2-phenoxybenzamide]
Ki (GST-Bcl-XL): 36.6 nM
Ki (GST-Bcl-2): 0.823 nM

O=C(NS(=O)(=O)c1ccc(NCCc2ccncc2)c([N+](=O)[O-])c1)c1ccc(N2CCN(Cc3ccccc3-c3ccc(Cl)cc3)CC2)cc1Oc1ccccc1 [Example 169, 4-{4-[(4′-chloro-1,1′-biphenyl-2-yl)methyl]piperazin-1-yl}-N-({3-nitro-4-[(2-pyridin-4-ylethyl)amino]phenyl}sulfonyl)-2-phenoxybenzamide]
Ki (GST-Bcl-XL): 88.6 nM
Ki (GST-Bcl-2): 0.97 nM

O=C(NS(=O)(=O)c1ccc(NCC2CCOCC2)c([N+](=O)[O-])c1)c1ccc(N2CCN(Cc3cc(N4CCOCC4)ccc3-c3ccc(Cl)cc3)CC2)cc1Oc1cccc2[nH]ccc12 [Example 198, 4-{4-[(4′-chloro-4-morpholin-4-yl-1,1′-biphenyl-2-yl)methyl]piperazin-1-yl}-2-(1H-indol-4-yloxy)-N-({3-nitro-4-[(tetrahydro-2H-pyran-4-ylmethyl)amino]phenyl}sulfonyl)benzamide]
Ki (GST-Bcl-XL): > 660 nM
Ki (GST-Bcl-2): 3.97 nM

CC1(C)CCC(CN2CCN(c3ccc(C(=O)NS(=O)(=O)c4ccc(NN5CCN(CCO)CC5)c([N+](=O)[O-])c4)c(Oc4ccc5[nH]ccc5c4)c3)CC2)=C(c2ccc(Cl)cc2)C1 [Example 233, 4-(4-{[2-(4-chlorophenyl)-4,4-dimethylcyclohex-1-en-1-yl]methyl}piperazin-1-yl)-N-[(4-{[4-(2-hydroxyethyl)piperazin-1-yl]amino}-3-nitrophenyl)sulfonyl]-2-(1H-indol-5-yloxy)benzamide]
Ki (GST-Bcl-XL): > 660 nM
Ki (GST-Bcl-2): 0.243 nM

CN1CC[C@H](Nc2ccc(S(=O)(=O)NC(=O)c3ccc(N4CCN(CC5=C(c6ccc(Cl)cc6)CC(C)(C)CC5)CC4)cc3Oc3ccc4[nH]ccc4c3)cc2[N+](=O)[O-])C1 [Example 234, 4-(4-{[2-(4-chlorophenyl)-4,4-dimethylcyclohex-1-en-1-yl]methyl}piperazin-1-yl)-2-(1H-indol-5-yloxy)-N-[(4-{[(3S)-1-methylpyrrolidin-3-yl]amino}-3-nitrophenyl)sulfonyl]benzamide]
Ki (GST-Bcl-XL): 24.5 nM
Ki (GST-Bcl-2): 0.369 nM

CC1(C)CCC(CN2CCN(c3ccc(C(=O)NS(=O)(=O)c4ccc(NC5CCN(CCCF)CC5)c([N+](=O)[O-])c4)c(Oc4ccc5[nH]ccc5c4)c3)CC2)=C(c2ccc(Cl)cc2)C1 [Example 235, 4-(4-{[2-(4-chlorophenyl)-4,4-dimethylcyclohex-1-en-1-yl]methyl}piperazin-1-yl)-N-[(4-{[1-(3-fluoropropyl)piperidin-4-yl]amino}-3-nitrophenyl)sulfonyl]-2-(1H-indol-5-yloxy)benzamide]
Ki (GST-Bcl-XL): 58.2 nM
Ki (GST-Bcl-2): 0.252 nM

CC1(C)CCC(CN2CCN(c3ccc(C(=O)NS(=O)(=O)c4ccc(NCC5CCOCC5)c([N+](=O)[O-])c4)c(Oc4ccc5[nH]ccc5c4)c3)CC2CO)=C(c2ccc(Cl)cc2)C1 (stereo not drawn) [Example 236, 4-[4-{[2-(4-chlorophenyl)-4,4-dimethylcyclohex-1-en-1-yl]methyl}-3-(hydroxymethyl)piperazin-1-yl]-2-(1H-indol-5-yloxy)-N-({3-nitro-4-[(tetrahydro-2H-pyran-4-ylmethyl)amino]phenyl}sulfonyl)benzamide]
Ki (GST-Bcl-XL): > 660 nM
Ki (GST-Bcl-2): 0.369 nM

CC1(C)CCC(CN2CCN(c3ccc(C(=O)NS(=O)(=O)c4ccc(NCC5(N)CCOCC5)c([N+](=O)[O-])c4)c(Oc4ccc5[nH]ccc5c4)c3)CC2CO)=C(c2ccc(Cl)cc2)C1 (stereo not drawn) [Example 237, N-[(4-{[(4-aminotetrahydro-2H-pyran-4-yl)methyl]amino}-3-nitrophenyl)sulfonyl]-4-[4-{[2-(4-chlorophenyl)-4,4-dimethylcyclohex-1-en-1-yl]methyl}-3-(hydroxymethyl)piperazin-1-yl]-2-(1H-indol-5-yloxy)benzamide]
Ki (GST-Bcl-XL): 268 nM
Ki (GST-Bcl-2): 0.401 nM

CC1(C)CCC(CN2CCN(c3ccc(C(=O)NS(=O)(=O)c4ccc(NC5(CO)CCOCC5)c([N+](=O)[O-])c4)c(Oc4cccc5[nH]ccc45)c3)CC2)=C(c2ccc(Cl)cc2)C1 [Example 241, 4-(4-{[2-(4-chlorophenyl)-4,4-dimethylcyclohex-1-en-1-yl]methyl}piperazin-1-yl)-N-[(4-{[4-(hydroxymethyl)tetrahydro-2H-pyran-4-yl]amino}-3-nitrophenyl)sulfonyl]-2-(1H-indol-4-yloxy)benzamide]
Ki (GST-Bcl-XL): > 660 nM
Ki (GST-Bcl-2): 6.09 nM
